Test results taken from publication PMC7734281, “Functionalized Oxoindolin Hydrazine Carbothioamide Derivatives as Highly Potent Inhibitors of Nucleoside Triphosphate Diphosphohydrolases” (Frontiers in Pharmacology, 2020).

Assays:
Assay type in all cases: biochemical
Details in all cases: for inhibition at 100 µM: compound 100 µM; for IC50: mean ± SEM of three independent experiments
m-NTPDase1 = molecular target: T1, m-NTPDase1 (Mus musculus, UniProt P55772); test: m-NTPDase1 inhibition, malachite green assay
T1 construct: made in house; host or cells: COS-7 cells, transient transfection; crude protein extract after sonication
T1 sequence (P55772 1-510): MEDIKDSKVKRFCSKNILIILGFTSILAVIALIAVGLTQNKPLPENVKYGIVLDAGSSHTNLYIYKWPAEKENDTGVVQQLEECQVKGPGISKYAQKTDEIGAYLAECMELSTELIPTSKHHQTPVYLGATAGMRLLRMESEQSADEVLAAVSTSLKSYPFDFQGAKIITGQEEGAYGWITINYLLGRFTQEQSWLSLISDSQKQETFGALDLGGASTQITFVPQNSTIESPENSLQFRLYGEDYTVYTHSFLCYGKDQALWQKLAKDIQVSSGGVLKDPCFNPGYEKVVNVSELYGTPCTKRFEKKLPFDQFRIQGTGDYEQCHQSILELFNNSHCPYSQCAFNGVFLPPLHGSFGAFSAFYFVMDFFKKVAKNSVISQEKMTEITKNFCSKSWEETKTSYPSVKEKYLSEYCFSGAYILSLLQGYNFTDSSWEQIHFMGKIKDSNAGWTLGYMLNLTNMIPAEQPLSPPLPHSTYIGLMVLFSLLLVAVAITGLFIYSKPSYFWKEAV
Method: (§1) COS-7 cells were transfected with plasmids expressing human or mouse NTPDases1, -2, -3, and -8 as previously described ([Levesque et al., 2007]; [Lecka et al., 2014]) Briefly, the confluent cells were transferred to Dulbecco’s Modified Eagle’s Medium containing no fetal bovine serum. Then, these cells were incubated with plasmid DNA (6 µg) and Lipofectamine reagent (24 µl) at 37°C. After 5 h, transfection was terminated with the addition of an equal volume of DMEM/F-12 (supplemented with 20% FBS) and cells were collected by harvesting after 40–72 h.
(§2) To prepare protein extracts, transfected COS-7 cells were washed three times with tris-saline buffer while temperature was maintained at 4°C. Then cells were scraped and resuspended in harvesting buffer containing 95 mM NaCl, 45 mM tris and 0.1 mM phenylmethylsulfonyl fluoride (pH 7.5). Cells were again washed twice by centrifugation for 5 min at 300 × g at 4°C and then resuspended in harvesting buffer (supplemented with 10 μg ml aprotinin). Following sonication, cellular debris was isolated by 10 min centrifugation at 300 g at 4°C. Subsequently, supernatant was removed very carefully and protein concentration was determined by using Bradford microplate assay while using the bovine serum albumin as a standard ([Bradford, 1976]).
(§3) The inhibitory effects of synthesized compounds on h-NTPDase1, -2, -3, and -8 were determined as described previously, although with slight modifications ([Martín-Satué et al., 2009]). Assay was conducted in a reaction medium containing 50 mM tris-HCl and 5 mM CaCl2 (pH 7.4). All the test compounds were dissolved in dimethyl sulfoxide (DMSO, 10%) and initially screened at a concentration of 100 µM. A reaction mixture containing 55 µl of assay buffer, 10 µl of test compound solution and 10 µl of h-NTPDase1 (58 ng/well) or h-NTPDase2 (79 ng/well) or h-NTPDase3 (163 ng/well) or h-NTPDase8 (66 ng/well) was incubated at 37°C for 10 min. Following the incubation, a 10 µl solution of adenosine triphosphate (ATP, 100 µm) was added as substrate and reaction mixture was again incubated for 15 min at 37°C. The reaction was stopped by adding malachite green reagent (15 µl) and placed at room temperature for 4 to 6 min. Finally, absorbance was measured at 630 nm by using Omega FLUOstar microplate reader (BMG Labtech, Ortenberg, Germany) and % inhibitions were calculated. For compounds showing more than 50% inhibition of any isozyme, dose response curves were generated and their IC50 values were determined. Three separate enzyme inhibition assays were carried out in triplicate and dose-response curve were generated by using PRISM 5.0 (GraphPad, San Diego, United States).
(§4) Same procedure was adopted to determine the inhibitory effects of compounds on mouse NTPDases (m-NTPDases). However, the amount of protein used was as follows: m-NTPDase1 (82 ng/well), m-NTPDase2 (57 ng/well), m-NTPDase3 (110 ng/well) and m-NTPDase8 (79 ng/well)

m-NTPDase3 = molecular target: T2, m-NTPDase3 (Mus musculus, UniProt Q8BFW6); test: m-NTPDase3 inhibition, malachite green assay
T2 construct: made in house; host or cells: COS-7 cells, transient transfection; crude protein extract after sonication
T2 sequence (Q8BFW6 1-529): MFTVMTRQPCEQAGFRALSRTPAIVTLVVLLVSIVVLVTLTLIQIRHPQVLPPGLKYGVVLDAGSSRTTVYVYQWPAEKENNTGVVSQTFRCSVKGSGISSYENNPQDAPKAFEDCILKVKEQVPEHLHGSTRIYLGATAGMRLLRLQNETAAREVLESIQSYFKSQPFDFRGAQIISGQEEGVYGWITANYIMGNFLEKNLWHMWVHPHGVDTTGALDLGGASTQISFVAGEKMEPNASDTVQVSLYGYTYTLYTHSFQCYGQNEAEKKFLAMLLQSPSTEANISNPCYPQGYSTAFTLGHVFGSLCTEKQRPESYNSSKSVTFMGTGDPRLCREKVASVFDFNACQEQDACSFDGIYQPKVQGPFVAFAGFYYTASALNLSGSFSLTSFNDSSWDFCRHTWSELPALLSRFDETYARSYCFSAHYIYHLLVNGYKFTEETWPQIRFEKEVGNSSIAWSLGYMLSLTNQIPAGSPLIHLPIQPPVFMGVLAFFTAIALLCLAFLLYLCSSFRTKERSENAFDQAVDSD
Method: as §1, §2, §3, §4

m-NTPDase8 = molecular target: T3, m-NTPDase8 (Mus musculus, UniProt Q8K0L2); test: m-NTPDase8 inhibition, malachite green assay
T3 construct: made in house; host or cells: COS-7 cells, transient transfection; crude protein extract after sonication
T3 sequence (Q8K0L2 1-497): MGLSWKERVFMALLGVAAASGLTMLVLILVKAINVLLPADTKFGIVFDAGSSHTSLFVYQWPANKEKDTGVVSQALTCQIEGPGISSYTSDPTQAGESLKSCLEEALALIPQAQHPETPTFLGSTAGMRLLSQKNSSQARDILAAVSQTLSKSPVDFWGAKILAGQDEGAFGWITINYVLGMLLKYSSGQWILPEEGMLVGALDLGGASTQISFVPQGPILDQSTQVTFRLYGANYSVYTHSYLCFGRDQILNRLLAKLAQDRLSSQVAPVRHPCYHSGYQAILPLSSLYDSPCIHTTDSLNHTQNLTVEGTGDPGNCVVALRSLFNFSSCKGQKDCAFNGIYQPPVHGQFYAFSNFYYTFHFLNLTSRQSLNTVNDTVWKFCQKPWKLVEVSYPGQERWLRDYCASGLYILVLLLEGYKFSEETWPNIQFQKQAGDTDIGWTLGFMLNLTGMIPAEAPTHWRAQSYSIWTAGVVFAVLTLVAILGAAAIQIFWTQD
Method: as §1, §2, §3, §4

Row | SMILES | inhibition at 100 µM (m-NTPDase1) [%] | inhibition at 100 µM (m-NTPDase3) [%] | inhibition at 100 µM (m-NTPDase8) [%] | Ki (m-NTPDase1) [µM] | IC50 (m-NTPDase1) [µM] | Ki (m-NTPDase3) [µM] | IC50 (m-NTPDase3) [µM] | Ki (m-NTPDase8) [µM] | IC50 (m-NTPDase8) [µM]
1 | O=C1Nc2ccccc2/C1=N/NC(=S)Nc1ccccc1 [8a, (Z)-2-(2-oxoindolin-3-ylidene)-N-phenylhydrazine-1-carbothioamide] | 38 | 31 | 28 |  |  |  |  |  | 
2 | Cc1ccc(NC(=S)N/N=C2\C(=O)Nc3ccccc32)cc1 [8h, (Z)-2-(2-oxoindolin-3-ylidene)-N-(p-tolyl)hydrazine-1-carbothioamide] | 29 | 31 | 28 |  |  |  |  |  | 
3 | COc1ccc(NC(=S)NNC2=c3ccccc3=NC2=O)cc1 [8k, (Z)-N-(4-methoxyphenyl)-2-(2-oxoindolin-3-ylidene)hydrazine-1-carbothioamide] | 42 | 36 | 24 |  |  |  |  |  | 
4 | COc1ccc(OC)c(NC(=S)N/N=C2\C(=O)Nc3ccccc32)c1 [8j, (Z)-N-(2,5-dimethoxyphenyl)-2-(2-oxoindolin-3-ylidene)hydrazine-1-carbothioamide] | 24 | 30 | 32 |  |  |  |  |  | 
5 | O=C1Nc2ccccc2/C1=N/NC(=S)Nc1cccc(Cl)c1 [8g, (Z)-N-(3-chlorophenyl)-2-(2-oxoindolin-3-ylidene)hydrazine-1-carbothioamide] | 48 | 27 | 36 |  |  |  |  |  | 
6 | COc1cccc(NC(=S)N/N=C2\C(=O)Nc3ccccc32)c1 [8e, (Z)-N-(3-methoxyphenyl)-2-(2-oxoindolin-3-ylidene)hydrazine-1-carbothioamide] |  |  |  | 0.006 | 0.6 ± 0.03 | 0.07 | 0.7 ± 0.05 | 0.44 | 3.8 ± 0.21
7 | CCNC(=S)N/N=C1\C(=O)Nc2ccccc21 [8m, (Z)-N-ethyl-2-(2-oxoindolin-3-ylidene)hydrazine-1-carbothioamide] |  |  | 35 | 0.04 | 3.6 ± 0.02 | 0.24 | 2.41 ± 0.15 |  | 
8 | Cc1ccc(C(=O)Nc2ccc(S(=O)(=O)O)c3cc(S(=O)(=O)O)cc(S(=O)(=O)O)c23)cc1NC(=O)c1cccc(NC(=O)Nc2cccc(C(=O)Nc3cc(C(=O)Nc4ccc(S(=O)(=O)O)c5cc(S(=O)(=O)O)cc(S(=O)(=O)O)c45)ccc3C)c2)c1 [Suramin, reference compound] |  |  |  |  | > 100 | 3.07 | 31 ± 2 |  | > 100
9 | O=C1Nc2ccccc2/C1=N/NC(=S)Nc1ccc(F)cc1 [8d, (Z)-N-(4-fluorophenyl)-2-(2-oxoindolin-3-ylidene)hydrazine-1-carbothioamide] | 41 | 29 |  |  |  |  |  | 0.17 | 1.45 ± 0.12
10 | O=C1Nc2ccccc2/C1=N/NC(=S)Nc1c(F)cccc1F [8l, (Z)-N-(2,6-difluorophenyl)-2-(2-oxoindolin-3-ylidene)hydrazine-1-carbothioamide] |  |  | 13 | 0.03 | 3.22 ± 0.19 | 0.03 | 0.32 ± 0.04 |  | 
11 | O=C1Nc2ccccc2/C1=N/NC(=S)Nc1ccc([N+](=O)[O-])cc1 [8b, (Z)-N-(4-nitrophenyl)-2-(2-oxoindolin-3-ylidene)hydrazine-1-carbothioamide] | 14 | 28 | 30 |  |  |  |  |  | 
12 | Cc1cccc(C)c1NC(=S)N/N=C1\C(=O)Nc2ccccc21 [8i, (Z)-N-(2,6-dimethylphenyl)-2-(2-oxoindolin-3-ylidene)hydrazine-1-carbothioamide] | 20 | 32 | 26 |  |  |  |  |  | 
13 | O=C1Nc2ccccc2/C1=N/NC(=S)Nc1ccc(Cl)cc1 [8c, (Z)-N-(4-chlorophenyl)-2-(2-oxoindolin-3-ylidene)hydrazine-1-carbothioamide] | 28 |  | 36 |  |  |  |  |  | 
14 | O=C1Nc2ccccc2/C1=N/NC(=S)NCc1ccccc1 [8f, (Z)-N-benzyl-2-(2-oxoindolin-3-ylidene)hydrazine-1-carbothioamide] |  | 32 | 38 | 0.04 | 4.14 ± 0.13 |  |  |  | 
